Test results reported in PMC12655518, “Screening Novel Furoxan Derivatives as Potential Inhibitors Targeting Thioredoxin Glutathione Reductase of Fasciola gigantica” (Pharmaceuticals, 2025).
Read-outs that look alike come from different tables or passages of the source.

Columns and labels:
FgTGRsec (GR activity) = system: FgTGRsec (GR activity); set-up: method as in PMID 29526505; details: cited from earlier work
FgTGRsec (TrxR activity) [1] = target: T1, FgTGRsec (TrxR activity) (Fasciola gigantica, UniProt A0A0K1NYF8); set-up: method as in PMID 29526505; details: cited from earlier work
[2] = system: Taenia crassiceps cysticerci; set-up: method as in PMID 20431894; details: cited from earlier work
FgTGRsec (TrxR activity) [3] = target: T1, FgTGRsec (TrxR activity); experiment: DTNB-based TrxR activity inhibition assay of FgTGRsec; type: biochemical; details: DTNB reduction, 20 min incubation, triplicate, read-out: IC50 of rFgTGRsec
Procedure: The TrxR activity of FgTGR and FgTGRsec was determined by using the 5, 5′-diothiobis (2-nitrobenzoic acid, DTNB, 4 mg/mL) (Sigma, St. Louis, MO, USA) reduction assay at room temperature. The reaction mixture was composed of 180 μL working buffer (0.1 mM potassium phosphate, pH 7.0, 10 mMEDTA, 100 μM β-nicotinamide adenine dinucleotide phosphate (NADPH) (Sigma)), 4 μL assay buffer (0.1 mM potassium phosphate, pH 7.0, 10 mM EDTA), 6 μL DTNB, and 10 μL rFgTGR or rFgTGRsec (600 μg/mL). The reaction was initiated by the adding DTNB at concentrations ranging from 100 μmol/L to 1000 μmol/L. An increase in absorbance at 412 nm was observed within the first 2 min. One unit of thioredoxin reductase (TrxR) activity was defined as the amount of enzyme that catalyzes the production of 1 μmol of 2-nitro-5-thiobenoic acid (TNB) per minute at room temperature. The reaction mixture without FgTGR or FgTGRsec was used as a negative control, and the processes of the negative experiments were the same as the above description.
To evaluate the effect of furoxan derivatives on FgTGRsec, the activity of TrxR was measured. The furoxan derivatives were soluble in dimethyl sulfoxide (DMSO), and seven concentrations of each derivative were prepared based on their distinct structures. For the DTNB-based TrxR activity inhibition assay, reaction mixtures were prepared as described in the TrxR activity assay protocol. The components were incubated for 20 min, after which the reaction was initiated by adding DTNB. The increase in absorbance at 412 nm was measured to evaluate the inhibitory effect of each furoxan derivative. The half-maximal inhibitory concentration (IC50) values of the compounds were calculated by GraphPad Prism v6.0c software. The reaction without FgTGRsec and furoxan derivatives served as the blank control, while the reaction with furoxan was the positive control. All assays were performed in triplicate.

SjTGRsec (TrxR activity) = system: SjTGRsec (TrxR activity); set-up: method as in PMID 33902686; details: S. japonicum, result in words; cited from earlier work

T1 sequence (A0A0K1NYF8 entry or part of it): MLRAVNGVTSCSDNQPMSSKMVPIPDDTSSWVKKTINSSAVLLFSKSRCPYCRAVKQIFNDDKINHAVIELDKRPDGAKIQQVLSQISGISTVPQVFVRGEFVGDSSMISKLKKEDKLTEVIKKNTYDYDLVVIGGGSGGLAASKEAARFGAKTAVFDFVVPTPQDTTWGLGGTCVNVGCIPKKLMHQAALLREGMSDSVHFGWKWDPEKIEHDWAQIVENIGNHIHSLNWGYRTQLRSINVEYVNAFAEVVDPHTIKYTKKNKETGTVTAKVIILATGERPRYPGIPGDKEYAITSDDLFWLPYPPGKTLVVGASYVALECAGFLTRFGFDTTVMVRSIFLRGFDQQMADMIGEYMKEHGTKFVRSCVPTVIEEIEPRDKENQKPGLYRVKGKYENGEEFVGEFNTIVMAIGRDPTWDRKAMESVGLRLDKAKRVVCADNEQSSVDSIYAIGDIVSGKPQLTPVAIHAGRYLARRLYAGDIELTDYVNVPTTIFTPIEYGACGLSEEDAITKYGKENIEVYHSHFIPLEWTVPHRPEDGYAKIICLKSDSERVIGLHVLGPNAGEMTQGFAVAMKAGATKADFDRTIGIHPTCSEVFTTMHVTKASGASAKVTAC

Row | SMILES | IC50 (FgTGRsec (TrxR activity) [3]) [µM] | further results
1 | CC(=O)OC[C@H]1O[C@@H]([S-])[C@H](OC(C)=O)[C@@H](OC(C)=O)[C@@H]1OC(C)=O.CCP(CC)CC.[Au+] [AF, auranofin] |  | IC50 (FgTGRsec (GR activity)): 8.3 µM; IC50 (FgTGRsec (TrxR activity) [1]): 0.87 µM; IC50 ([2]; Taenia crassiceps cysticerci cultured with AF for 12 h): 3.8 µM; survival of cysticerci ([2]; after culturing with AF for 12 h): all dead
2 | [O-][n+]1onc(-c2cccnc2)c1CO [LGM-1] | 6.93 ± 1.74 | 
3 | [O-][n+]1onc(-c2ccc(C(F)(F)F)cc2)c1CN1CCN(c2ccccc2F)CC1 [CH-33] | 18.5 ± 2.57 | 
4 | [O-][n+]1onc(-c2ccncc2)c1CO [LGM-2] | 15.2 ± 0.8 | 
5 | [O-][n+]1onc(-c2ccc(C(F)(F)F)nc2)c1CO [LGM-35] | 4.5 ± 0.35 | inhibition of TrxR activity (SjTGRsec (TrxR activity)): most significant inhibition
6 | [O-][n+]1onc(-c2cccc(Cl)c2)c1CO [ZWJ-19] | 3.82 ± 0.33 | 
